Test results from paper PMC11148078, “Potent activity of polymyxin B is associated with long-lived super-stoichiometric accumulation mediated by weak-affinity binding to lipid A” (Nature Communications, 2024).
Where two headings read alike, the source gives them in different places. Bridge positions count the residues as written; N and C are the ends. Square brackets hold non-standard residues; d marks the D form. Peptide text beside a SMILES is read from it. * marks the point of attachment. X1 = CC[C@H](C)CCCCC(=O)*; Dab = NCC[C@H](N)C(=O)O

What was measured:
[1] = tested on: lipid A / outer membrane; set-up: method as in PMID 6414364, PMID 10956216; settings: ref [20],[21]; cited from earlier work
[2] = tested on: mammalian extracellular vesicles (Expi293 cells); assay: SPR binding to mammalian vesicles on LP chip; settings: 312.5 nM–40 µM, 25 °C
Excerpt: tween-80 (SI Fig. S4F). Note that higher concentrations were used to resolve the interaction above non-specific chip binding and the loss of polymyxin B to binding of plastics as discussed […]
OMVs isolated from polymyxin-resistant bacteria (resistant-OMVs) were composed of modified lipid A (SI Table S1 and SI Fig. S6) and were immobilized via amine-coupled polymyxin B to the surface of a C1 chip (SI Fig. S4G). Given the results of our studies here, the binding of resistant-OMVs to the amine-coupled polymyxin B surface (stably, at least within the time frames used here) is not surprising. OMVs have several advantages over whole cells and purified LPS. They can be produced in large batches and frozen for multiple experiments. OMVs can be isolated from potentially any genetic background (such as the two polymyxin-resistant strains used here), from potentially any gram-negative bacterial strains, and allow interrogation of types of LPS which are not commercially available (ex. modified lipid A species). […]
Analysis and compartment temperature were set to 25°C. Mammalian vesicles from Expi293 cells were isolated as described19 by harvesting supernatants and concentrating vesicles via ultra-centrifugation (120,000 xg, 4°C, 1h), washing, suspending pellet in PBS, quantifying by Bradford protein assay, and diluting to […] in PBS. […]

[3] = tested on: E. coli cells, OMVs, and LPS; assay: SPR apparent association rate averaged over cells, OMVs and LPS; assay type: binding; settings: averaged for cells
Method: OMV-coated and whole cell-coated C1 chips were prepared as already described with the following changes and LPS-coated surfaces were prepared identically but with rough-LPS extracted from E. coli F583 (Rd mutant, Sigma #L6893). For LPS, cloudy colloid suspension (above its CMC, ~1 mg/ml) contains LPS micelles that were injected and captured. For all formats, sample buffer and running buffer were composed of Dulbecco’s phosphate-buffered salt solution containing 0.0005% tween-80 (Sigma), 1 mM calcium and 0.5 mM magnesium (Fisher Scientific), pH 7.4. Analysis and compartment temperatures were both set to 37 °C. Freshly prepared OMV-coated or whole cell-coated sensing surfaces were employed for each injection of polymyxin B while LPS-coated sensing surfaces could be fully regenerated by injecting 50 mM CHAPS. Reversibly bound PMBN could be reinjected over all surfaces without requiring regeneration as it fully dissociated within a few minutes.
Fresh sensing surfaces coated with whole cells and OMVs were prepared and 325 nM polymyxin B was injected at […] for 120 s over both. This injection was repeated after a long delay, and without regeneration, in order to allow free sites to become available thereby resulting in two polymyxin B binding curves for each sensing surface (Fig. 3E, F). […]

[4] = tested on: bacterial cells; settings: different methods, ref [27]–[31], cited from earlier work
Method: Investigations into the binding of polymyxins to bacterial cells have generally relied on whole-cell and plate-based equilibrium approaches. Different methods have produced equilibrium binding constants (KDs) for polymyxin B ranging from 400 nM up to greater than 100 µM[27]–[31], which are, in some cases, multiple orders-of-magnitude higher than the reported cellular potency of these antibiotics. However, these approaches are likely complicated by the rapid kill-kinetics of polymyxins, non-specific binding of polymyxins to plate surfaces, assumptions of a simple binding mechanism, an inoculum ...

Row | Compound | antibacterial activity and lipid A binding [1] | SPR binding to mammalian cell derived vesicles [2] | ka, apparent association rate constant [3] | Kd ([4]; read-out: equilibrium binding constant KD, lower end) | Kd ([4]; read-out: equilibrium binding constant KD, upper end)
1 | CC(C)C[C@@H]1NC(=O)[C@@H](Cc2ccccc2)NC(=O)[C@H](CCN)NC(=O)[C@@H](NC(=O)[C@H](CCN)NC(=O)[C@@H](N)[C@@H](C)O)CCNC(=O)[C@H]([C@@H](C)O)NC(=O)[C@H](CCN)NC(=O)[C@H](CCN)NC1=O [PMBN] (H-T[Dab][Dab][Dab][dF]L[Dab][Dab]T; lactam 3-C) | do not possess antibacterial activity, nonetheless bind to lipid A and permeabilize the outer membrane | – | – | – | –
2 | CC[C@H](C)CCCCC(=O)N[C@@H](CCN)C(=O)N[C@H](C(=O)N[C@@H](CCN)C(=O)N[C@H]1CCNC(=O)[C@H]([C@@H](C)O)NC(=O)[C@H](CCN)NC(=O)[C@H](CCN)NC(=O)[C@H](CC(C)C)NC(=O)[C@@H](Cc2ccccc2)NC(=O)[C@H](CCN)NC1=O)[C@@H](C)O [Polymyxin B] (X1-[Dab]T[Dab][Dab][Dab][dF]L[Dab][Dab]T; lactam 4-C (inferred); N-terminus assumed) | – | distinct from what we observe with OMVs and bacterial cells | 2.1 (±0.78) × 10^5 M^−1 s^−1 | 400 nM | > 100000 nM
